Experimental data from ChEMBL document CHEMBL6087402, “Design, synthesis, and in vitro and in vivo biological evaluation of dihydroartemisinin derivatives as potent anti-cancer agents with ferroptosis-inducing and apoptosis-activating properties” (Eur J Med Chem, 2025).

Experiments:
Assay type in all cases: functional, cell-based
A549 = assay: Anti-proliferative activity against human A549 cells incubated for 72 hrs by MTT assay; conditions: A549, 72 h
SW-620 = assay: Anti-proliferative activity against human SW620 cells incubated for 72 hrs by MTT assay; conditions: SW-620, 72 h
Bel-7402 = assay: Anti-proliferative activity against human Bel-7402 cells incubated for 72 hrs by MTT assay; conditions: Bel-7402, 72 h
HCT-116 = assay: Anti-proliferative activity against human HCT-116 cells incubated for 72 hrs by MTT assay; conditions: HCT-116, 72 h

| Structure (SMILES) | IC50 (A549) | IC50 (SW-620) | IC50 (Bel-7402) | IC50 (HCT-116) |
| --- | --- | --- | --- | --- |
| CCCCCNC(=O)OC1O[C@@H]2O[C@@]3(C)CC[C@@H]4[C@H](C)CC[C@@H]([C@H]1C)[C@@]24OO3 (stereo not given in full) | 7.5 µM | 1.42 µM | > 10 µM | 1.82 µM |
| C[C@@H]1CC[C@H]2[C@@H](C)C(OC(=O)c3cn(-c4ccccc4)nn3)O[C@@H]3O[C@@]4(C)CC[C@H]1[C@]32OO4 (stereo not given in full) | > 10 µM | 7.22 µM | > 10 µM | 3.41 µM |
| C[C@@H]1CC[C@H]2[C@@H](C)C(OC(=O)c3cn(-c4ccc(Cl)cc4)nn3)O[C@@H]3O[C@@]4(C)CC[C@H]1[C@]32OO4 (stereo not given in full) | > 10 µM | 8.21 µM | 9.24 µM | 3.12 µM |
| COc1ccc2[nH]cc(CCNC(=O)CCC(=O)OC3O[C@@H]4O[C@@]5(C)CC[C@@H]6[C@H](C)CC[C@@H]([C@H]3C)[C@@]46OO5)c2c1 (stereo not given in full) | > 10 µM | 7.28 µM | > 10 µM | 6.64 µM |
| COc1ccc(-n2cc(COC(=O)CCC(=O)OC3O[C@@H]4O[C@@]5(C)CC[C@@H]6[C@H](C)CC[C@@H]([C@H]3C)[C@@]46OO5)nn2)cc1 (stereo not given in full) | 7.18 µM | 1.59 µM | > 10 µM | 2.78 µM |
| C[C@@H]1CC[C@H]2[C@@H](C)C(OC(=O)CCC(=O)OCc3cn(-c4ccccc4)nn3)O[C@@H]3O[C@@]4(C)CC[C@H]1[C@]32OO4 (stereo not given in full) | 6.51 µM | 1.79 µM | > 10 µM | 2.38 µM |
| C[C@@H]1CC[C@H]2[C@@H](C)C(OC(=O)CCc3nc(-c4ccc(Cl)cc4)no3)O[C@@H]3O[C@@]4(C)CC[C@H]1[C@]32OO4 (stereo not given in full) | 6.79 µM | > 10 µM | 7.05 µM | 3.68 µM |
| C[C@@H]1CC[C@H]2[C@@H](C)C(OC(=O)c3cn(-c4ccc([N+](=O)[O-])cc4)nn3)O[C@@H]3O[C@@]4(C)CC[C@H]1[C@]32OO4 (stereo not given in full) | > 10 µM | 4.22 µM | > 10 µM | > 10 µM |
| C[C@@H]1CC[C@H]2[C@@H](C)C(OC(=O)c3ccc(Cn4cc(Br)cn4)cc3)O[C@@H]3O[C@@]4(C)CC[C@H]1[C@]32OO4 (stereo not given in full) | 4.9 µM | > 10 µM | 8.53 µM | 1.9 µM |
| C[C@@H]1CC[C@H]2[C@@H](C)C(OC(=O)c3cnc4ccccc4c3)O[C@@H]3O[C@@]4(C)CC[C@H]1[C@]32OO4 (stereo not given in full) | > 10 µM | > 10 µM | 8.4 µM | 2.62 µM |
| CCCCCCCNC(=O)OC1O[C@@H]2O[C@@]3(C)CC[C@@H]4[C@H](C)CC[C@@H]([C@H]1C)[C@@]24OO3 (stereo not given in full) | 8 µM | 3.9 µM | > 10 µM | 1.19 µM |
| C[C@@H]1CC[C@H]2[C@@H](C)C(OC(=O)CCC(=O)OCc3cn(-c4ccc(F)cc4)nn3)O[C@@H]3O[C@@]4(C)CC[C@H]1[C@]32OO4 (stereo not given in full) | 6.28 µM | 2.33 µM | > 10 µM | 2.21 µM |
| COc1cc(-n2cc(C(=O)OC3O[C@@H]4O[C@@]5(C)CC[C@@H]6[C@H](C)CC[C@@H]([C@H]3C)[C@@]46OO5)nn2)cc(OC)c1OC (stereo not given in full) | > 10 µM | 1.9 µM | > 10 µM | 4.32 µM |
| C[C@@H]1CC[C@H]2[C@@H](C)C(OC(=O)CCc3nc(-c4ccc(F)cc4)no3)O[C@@H]3O[C@@]4(C)CC[C@H]1[C@]32OO4 (stereo not given in full) | 6.55 µM | 7.17 µM | 5.07 µM | 2.94 µM |
| COc1ccc(-n2cc(COC(=O)CCC(=O)OC3O[C@@H]4O[C@@]5(C)CC[C@@H]6[C@H](C)CC[C@@H]([C@H]3C)[C@@]46OO5)nn2)cc1OC (stereo not given in full) | 8.03 µM | 2.89 µM | > 10 µM | 1.79 µM |
